Experimental data: patent US11766440B1, “Methods for the prevention and treatment of hearing loss” (Ting Therapeutics LLC, priority 2020, dated 2023)
pIC50: −log10 of the molar value. Where a name gives a salt, the structure may show the parent alone. Read-outs that look alike come from different tables or passages of the source.

Legend:
JAK2 = JAK2 (Homo sapiens, UniProt O60674); details: cited from earlier work
TYK2 = TYK2 (Homo sapiens, UniProt P29597); details: cited from earlier work
JAK1 = JAK1 (Homo sapiens, UniProt P23458); details: cited from earlier work
JAK3 = biological target: T1, JAK3 (Homo sapiens, UniProt P52333); details: cited from earlier work
T1 sequence (P52333 1-1124): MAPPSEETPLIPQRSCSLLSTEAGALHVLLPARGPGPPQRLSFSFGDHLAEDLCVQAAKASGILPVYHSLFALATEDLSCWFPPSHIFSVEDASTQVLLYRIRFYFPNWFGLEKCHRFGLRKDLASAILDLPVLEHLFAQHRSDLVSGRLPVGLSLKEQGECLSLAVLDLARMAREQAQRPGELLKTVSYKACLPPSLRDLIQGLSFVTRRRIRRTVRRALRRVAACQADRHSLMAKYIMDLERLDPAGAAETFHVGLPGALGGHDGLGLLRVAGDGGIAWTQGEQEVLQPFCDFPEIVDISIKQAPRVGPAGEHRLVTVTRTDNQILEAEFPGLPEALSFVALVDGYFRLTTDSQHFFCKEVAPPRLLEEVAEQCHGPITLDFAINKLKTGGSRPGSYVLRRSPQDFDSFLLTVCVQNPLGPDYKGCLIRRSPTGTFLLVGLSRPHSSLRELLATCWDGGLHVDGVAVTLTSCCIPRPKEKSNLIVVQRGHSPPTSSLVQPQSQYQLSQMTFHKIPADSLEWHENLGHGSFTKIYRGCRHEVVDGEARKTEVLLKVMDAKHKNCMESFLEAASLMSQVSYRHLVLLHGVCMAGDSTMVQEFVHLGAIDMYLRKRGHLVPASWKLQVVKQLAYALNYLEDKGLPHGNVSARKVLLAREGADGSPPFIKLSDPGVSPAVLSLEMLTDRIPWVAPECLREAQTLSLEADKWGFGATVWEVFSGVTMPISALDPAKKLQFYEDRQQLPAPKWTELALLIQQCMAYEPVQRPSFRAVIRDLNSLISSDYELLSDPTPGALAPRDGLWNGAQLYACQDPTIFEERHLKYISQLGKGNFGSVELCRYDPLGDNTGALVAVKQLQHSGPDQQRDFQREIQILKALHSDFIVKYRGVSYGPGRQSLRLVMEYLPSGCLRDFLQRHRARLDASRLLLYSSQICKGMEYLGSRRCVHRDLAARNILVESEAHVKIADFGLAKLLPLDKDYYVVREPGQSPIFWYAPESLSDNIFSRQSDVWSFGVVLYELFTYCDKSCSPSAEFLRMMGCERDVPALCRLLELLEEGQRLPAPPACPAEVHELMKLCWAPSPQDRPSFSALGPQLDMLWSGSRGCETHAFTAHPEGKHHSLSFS

[1] = 14-day oral toxicity and auditory brainstem response (ABR) thresholds in mice; type: in vivo, C57BL/6 mice
Protocol: Auditory brainstem response (ABR) thresholds were recorded for 3 frequencies (8 kHz, 16 kHz, and 32 kHz) before and after a 14-day MMB treatment protocol. […] Statistical analysis was done with repeated measures ANOVA between groups.
4-week-old C57BL/6 mice obtained from The Jackson Laboratory were used, with a mix of males and females across experiments. Mice were administered a 14-day Momelotinib treatment protocol. Auditory Brainstem Response thresholds were recorded at 8 kHz, 16 kHz, and 32 kHz for a baseline sample of mice and the mice administered Momelotinib.

[2] = test system: outer hair cells of cochlear explants of P3 FVB mice; experiment: Outer hair cell survival in whole-mount cochlear explants treated with aminoglycosides; type: cell-based, mouse
Protocol: A) Representative confocal images of the middle turn of whole-mount cochlear explants from P3 FVB mice treated with medium alone, […] gentamicin, 0.2 μM Momelotinib and […] gentamicin for 24 h. […] HCs are labeled with phalloidin. […] (Mann-Whitney U Test, *P<0.05, **P<0.01) shown in a micromolar concentration.
Now referring to FIG. 2A-B, Momelotinib protects from aminoglycoside toxicity in cochlear explants of P3 FVB mice. FVB mice were bred in the Creighton University animal facility. Procedures were approved by the IACUC committee of the Creighton University. 2A) Inner ears were collected from the post-natal day 3 (P3) FVB mice and transferred onto a filter (Millicell, PICM03050; Millipore) soaked in culturing medium. The filter was placed in 6-well culture plates with 1.2 mL medium outside the filter. The culturing medium is DMEM (10565-018; gibco) with 1% FBS (16000-044; gibco), 500 μL ampicillin (A5354; Sigma), 100 μL N-2 supplement (17502-048, gibco) and 100 μL B-27 supplement (17504-044, gibco). After culturing for 24 h at 37° C. in 5% CO2, 1 mL culturing medium with MMB at 0.2 μM, […] MMB alone or without MMB and added both inside and outside the filter to preincubate for another 1 h before adding gentamicin solution. A 50 μg/mL gentamicin (G1397, Sigma) was chosen to induce around 35% hair cell death after incubation for 24 h at 37° C. For compound CYT-387 or MMB (A10263, AdooQ). The procedures were performed under sterile condition in the culture hood. Cochleae were then fixed with 4% PFA for 30 min and stained with Alexa Fluor 555 phalloidin in to determine the survival rate of the hair cells. All the cochleae images were taken with Zeiss 700 confocal microscopy. […] The survival OHCs were then normalized to 100 μm length to further compare between different experimental conditions. 2B) OHC survival (OHC number per 100 μm length of cochlear middle turn) after treatment with Momelotinib at 0.0016, 0.008, 0.04, 0.2, 1.0, 5.0, 10.0 and 20.0 μM for 1 hour and co-incubated with 100 μM GM for 1 hour, or co-incubated with 600 μM kanamycin (K0254, Sigma) for 1 hour. […]

[3] = test system: zebrafish lateral line neuromast hair cells; experiment: Zebrafish lateral line neuromast hair cell counts after aminoglycoside; type: in vivo, Danio rerio; details: 5dpf larvae, 1 hour pre-incubation 0.002-13.3 μM
Protocol: . Each treatment was pretreated with MMB at the prescribed doses prior to co-treatment with the aminoglycoside. Control animal were treated with DMSO (−) or KM or GM alone (+) Animals were then fixed and immunostained for GFP and otoferlin. Quantification was done by assessing three neuromasts in the same anatomic location of each animal (n=5). The data is plotted as mean+SD. Statistical testing was done with One-way ANOVA and Dunnett post-hoc test (*P<0.05, **P<0.01,***P<0.001).
FIG. 4A-B show Fedratinib (FED) protected zebrafish mechanosensory hair cells against kanamycin (KM) in vivo. 5dpf Tg(Brn3c:mGFP) larvae were used for the experiments. Each treatment was pretreated FED at the prescribed doses prior to co-treatment with the aminoglycoside. […] Control animal were treated with DMSO (−) or KM alone (+) Animals were then fixed and immunostained for GFP and otoferlin. Quantification was done by assessing three neuromasts in the same anatomic location of each animal (n=5). […]
These two markers were used to detect and count neuromast HCs to reduce the chances of missing some of the HCs after the treatment since we previously noticed that incubation with the compounds can affect GFP expression more difficult to detect under a fluorescence microscope (26). […] Compounds were then evaluated on efficiency and potency, with the top-rated compounds showing high protection at lower concentrations. […]

EGFR kinase = EGFR kinase (Homo sapiens, UniProt P00533); details: measured value; read-out: IC50 in EGFR kinase inhibition assays; cited from earlier work
[4] = test system: panel of 38 non-JAK kinases; details: cited from earlier work

Chain of JAK1 (P23458 whole entry, species assumed): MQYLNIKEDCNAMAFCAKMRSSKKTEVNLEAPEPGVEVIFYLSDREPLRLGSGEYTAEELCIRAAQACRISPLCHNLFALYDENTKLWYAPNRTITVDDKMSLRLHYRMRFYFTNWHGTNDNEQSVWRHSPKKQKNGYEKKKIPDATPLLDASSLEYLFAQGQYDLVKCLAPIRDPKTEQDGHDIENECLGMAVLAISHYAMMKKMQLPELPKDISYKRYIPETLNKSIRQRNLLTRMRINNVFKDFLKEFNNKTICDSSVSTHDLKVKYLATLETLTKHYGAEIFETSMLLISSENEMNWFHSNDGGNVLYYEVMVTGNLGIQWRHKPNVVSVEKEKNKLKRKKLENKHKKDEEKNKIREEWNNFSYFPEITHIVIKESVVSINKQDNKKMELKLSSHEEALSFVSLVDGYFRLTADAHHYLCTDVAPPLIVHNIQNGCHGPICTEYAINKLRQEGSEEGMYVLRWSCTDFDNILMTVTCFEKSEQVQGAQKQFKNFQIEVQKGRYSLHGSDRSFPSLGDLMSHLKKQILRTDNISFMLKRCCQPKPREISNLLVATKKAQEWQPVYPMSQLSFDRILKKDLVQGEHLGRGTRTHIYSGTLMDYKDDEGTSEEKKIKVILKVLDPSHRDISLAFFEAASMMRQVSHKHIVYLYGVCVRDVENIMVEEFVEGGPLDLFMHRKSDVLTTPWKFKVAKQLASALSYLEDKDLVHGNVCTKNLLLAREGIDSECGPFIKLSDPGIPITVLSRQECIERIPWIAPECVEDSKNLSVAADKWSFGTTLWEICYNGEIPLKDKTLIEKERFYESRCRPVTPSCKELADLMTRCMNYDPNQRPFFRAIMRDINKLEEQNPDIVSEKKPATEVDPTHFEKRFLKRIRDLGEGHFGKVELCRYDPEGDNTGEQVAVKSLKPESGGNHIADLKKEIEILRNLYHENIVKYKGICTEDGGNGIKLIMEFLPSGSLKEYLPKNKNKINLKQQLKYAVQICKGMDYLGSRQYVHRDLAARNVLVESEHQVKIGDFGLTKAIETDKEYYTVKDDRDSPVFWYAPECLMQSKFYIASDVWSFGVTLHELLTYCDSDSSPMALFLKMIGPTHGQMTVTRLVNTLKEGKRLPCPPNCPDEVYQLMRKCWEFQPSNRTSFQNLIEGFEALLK
Chain of JAK2 (O60674 whole entry, species assumed): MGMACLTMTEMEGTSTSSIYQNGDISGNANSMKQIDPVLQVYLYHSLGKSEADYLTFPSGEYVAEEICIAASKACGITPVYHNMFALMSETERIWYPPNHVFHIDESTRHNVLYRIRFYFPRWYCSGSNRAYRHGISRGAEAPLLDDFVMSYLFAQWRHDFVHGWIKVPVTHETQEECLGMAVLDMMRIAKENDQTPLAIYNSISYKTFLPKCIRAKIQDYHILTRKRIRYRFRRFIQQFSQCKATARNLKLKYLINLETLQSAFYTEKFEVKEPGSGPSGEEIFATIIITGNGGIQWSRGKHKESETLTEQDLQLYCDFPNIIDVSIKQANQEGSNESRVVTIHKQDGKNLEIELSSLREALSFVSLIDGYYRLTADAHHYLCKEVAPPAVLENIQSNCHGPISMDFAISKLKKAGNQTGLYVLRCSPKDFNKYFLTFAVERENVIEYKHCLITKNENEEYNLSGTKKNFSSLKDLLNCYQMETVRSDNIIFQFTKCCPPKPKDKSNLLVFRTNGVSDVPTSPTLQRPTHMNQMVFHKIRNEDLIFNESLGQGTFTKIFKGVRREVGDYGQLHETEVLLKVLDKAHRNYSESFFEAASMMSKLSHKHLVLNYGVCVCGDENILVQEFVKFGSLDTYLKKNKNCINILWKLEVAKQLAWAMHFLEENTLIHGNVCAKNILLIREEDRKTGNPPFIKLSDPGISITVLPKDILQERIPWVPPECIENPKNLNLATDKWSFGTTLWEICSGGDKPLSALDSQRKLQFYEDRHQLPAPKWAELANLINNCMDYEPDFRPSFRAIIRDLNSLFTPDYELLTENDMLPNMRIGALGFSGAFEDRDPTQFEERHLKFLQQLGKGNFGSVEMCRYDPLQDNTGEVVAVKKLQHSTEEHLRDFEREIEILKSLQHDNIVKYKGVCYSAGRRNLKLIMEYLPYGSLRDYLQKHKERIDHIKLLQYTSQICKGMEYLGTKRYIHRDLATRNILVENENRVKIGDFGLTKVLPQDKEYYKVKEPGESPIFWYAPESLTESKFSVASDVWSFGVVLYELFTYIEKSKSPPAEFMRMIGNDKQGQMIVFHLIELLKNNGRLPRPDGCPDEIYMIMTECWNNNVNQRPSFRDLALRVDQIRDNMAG
Chain of TYK2 (P29597 whole entry): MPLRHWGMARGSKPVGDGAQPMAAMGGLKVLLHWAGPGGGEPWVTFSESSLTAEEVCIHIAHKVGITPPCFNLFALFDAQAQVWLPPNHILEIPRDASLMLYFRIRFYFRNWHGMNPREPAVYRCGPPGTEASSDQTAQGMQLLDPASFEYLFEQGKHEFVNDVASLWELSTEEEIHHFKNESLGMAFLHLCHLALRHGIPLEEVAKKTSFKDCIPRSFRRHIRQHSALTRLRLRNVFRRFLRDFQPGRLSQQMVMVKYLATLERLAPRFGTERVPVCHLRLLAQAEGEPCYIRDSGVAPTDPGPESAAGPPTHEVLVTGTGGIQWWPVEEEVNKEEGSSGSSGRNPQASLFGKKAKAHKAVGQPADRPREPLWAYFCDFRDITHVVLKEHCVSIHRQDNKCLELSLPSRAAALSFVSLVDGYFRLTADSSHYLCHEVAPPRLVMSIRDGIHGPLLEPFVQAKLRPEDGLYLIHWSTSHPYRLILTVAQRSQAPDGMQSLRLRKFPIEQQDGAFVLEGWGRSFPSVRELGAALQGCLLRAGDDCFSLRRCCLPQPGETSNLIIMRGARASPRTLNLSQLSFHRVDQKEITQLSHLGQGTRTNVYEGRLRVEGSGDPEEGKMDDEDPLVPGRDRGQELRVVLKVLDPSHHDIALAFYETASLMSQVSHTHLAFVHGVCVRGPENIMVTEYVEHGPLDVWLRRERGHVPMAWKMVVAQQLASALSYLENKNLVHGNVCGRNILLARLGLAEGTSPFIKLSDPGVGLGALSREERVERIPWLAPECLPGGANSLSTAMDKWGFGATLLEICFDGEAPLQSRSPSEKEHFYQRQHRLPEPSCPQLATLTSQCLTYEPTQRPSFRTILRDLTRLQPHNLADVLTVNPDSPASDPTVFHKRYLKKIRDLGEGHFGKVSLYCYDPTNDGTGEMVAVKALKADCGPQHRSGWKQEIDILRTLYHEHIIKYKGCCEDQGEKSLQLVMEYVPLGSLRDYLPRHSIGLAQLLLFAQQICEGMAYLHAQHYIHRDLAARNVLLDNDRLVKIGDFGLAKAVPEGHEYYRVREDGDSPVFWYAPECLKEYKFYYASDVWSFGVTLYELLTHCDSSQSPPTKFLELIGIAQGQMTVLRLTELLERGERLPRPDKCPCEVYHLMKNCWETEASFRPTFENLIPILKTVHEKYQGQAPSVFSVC
Chain of EGFR kinase (P00533 25-1210): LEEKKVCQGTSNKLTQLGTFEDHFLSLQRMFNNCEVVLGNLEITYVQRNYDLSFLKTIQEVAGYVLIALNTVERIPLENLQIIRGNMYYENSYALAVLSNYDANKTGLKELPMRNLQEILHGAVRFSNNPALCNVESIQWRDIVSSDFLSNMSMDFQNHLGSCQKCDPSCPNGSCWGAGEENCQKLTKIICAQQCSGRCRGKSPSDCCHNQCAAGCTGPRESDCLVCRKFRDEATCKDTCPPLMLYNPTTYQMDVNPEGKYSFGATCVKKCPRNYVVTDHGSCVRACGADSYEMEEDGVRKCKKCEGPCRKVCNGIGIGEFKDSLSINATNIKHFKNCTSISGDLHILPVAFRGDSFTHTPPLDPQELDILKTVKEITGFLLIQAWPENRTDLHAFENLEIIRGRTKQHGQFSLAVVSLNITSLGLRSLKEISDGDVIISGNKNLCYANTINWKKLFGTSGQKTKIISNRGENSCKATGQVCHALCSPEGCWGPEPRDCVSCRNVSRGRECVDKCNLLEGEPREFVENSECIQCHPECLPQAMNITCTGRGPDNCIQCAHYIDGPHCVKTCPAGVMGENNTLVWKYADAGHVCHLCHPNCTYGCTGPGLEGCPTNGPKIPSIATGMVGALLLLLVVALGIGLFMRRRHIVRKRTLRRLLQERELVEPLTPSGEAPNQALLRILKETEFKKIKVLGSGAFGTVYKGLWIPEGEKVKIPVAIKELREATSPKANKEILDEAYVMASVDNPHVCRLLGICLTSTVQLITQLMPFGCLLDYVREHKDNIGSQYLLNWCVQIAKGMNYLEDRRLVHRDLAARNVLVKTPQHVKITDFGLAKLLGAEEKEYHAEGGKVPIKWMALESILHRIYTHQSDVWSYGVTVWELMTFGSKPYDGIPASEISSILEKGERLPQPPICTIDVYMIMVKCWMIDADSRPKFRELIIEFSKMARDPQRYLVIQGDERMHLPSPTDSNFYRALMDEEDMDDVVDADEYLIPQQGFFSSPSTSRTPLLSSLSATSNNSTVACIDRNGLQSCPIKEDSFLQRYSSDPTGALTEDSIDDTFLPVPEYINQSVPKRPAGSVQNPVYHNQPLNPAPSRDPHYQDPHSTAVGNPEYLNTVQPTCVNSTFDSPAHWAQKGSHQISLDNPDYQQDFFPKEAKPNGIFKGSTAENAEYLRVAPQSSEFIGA

In the case of N#Cc1ccc(COc2ccc(-c3cccc4nc(NC(=O)C5CC5)nn34)cc2)cn1 [GLPG0634 analogue], the pIC50 (JAK2; cell-free assay for AZD1480 and AT9283) is listed as 7.55, the pIC50 (TYK2) is listed as 6.94 and the pIC50 (JAK1) is listed as 8.00. The pIC50 (JAK3) was 6.09.
In the case of COc1cc2ncnc(Nc3ccc(O)cc3)c2cc1OC [JANEX-1], the “activity against JAK2” value (JAK2) is given as “without altering the activity”, the “activity against JAK1” value (JAK1) is given as “without altering the activity” and the pIC50 (JAK3) is given as 4.11.
With N#CCNC(=O)c1ccc(-c2ccnc(Nc3ccc(N4CCOCC4)cc3)n2)cc1 [Momelotinib] the “inner ear toxicity: ABR thresholds before and after treatment” value ([1]; 8 kHz, 16 kHz and 32 kHz, 14-day Momelotinib protocol) was “No differences”, the “general toxicity in vivo” value ([1]; oral, up to 100 mg/kg/day over a 14-day regimen, 4-week-old C57BL/6 mice) was “not toxic” and the “toxicity to HCs of compound alone” value ([2]; 0.2 μM Momelotinib alone, cochlear explants) was “did not show toxicity”. The “hair cell loss at the middle turn region (phalloidin images)” value ([2]; cotreated with MMB 0.2 μM and gentamicin (GM), 24 h, P3 FVB cochlear explants) was “minimal levels of hair cell loss”, the “protection against aminoglycoside-induced hair cell loss (OHC number per 100 μm length of cochlear middle turn)” value ([2]; cotreatment with Momelotinib and gentamicin or kanamycin, n=5 per group) was “full protection” and the “protection of mechanosensory hair cells against gentamicin (GM)” value ([3]; then GM 100 uM for 1 hour) was “protected”. The “protection of mechanosensory hair cells against kanamycin (KM)” value ([3]; then KM 200 or 300 uM for 1 hour or 150 uM for 6 hours) was “protected”.
In the case of NC(=O)c1nc(-c2c(F)cccc2Cl)oc1Nc1ccc(C(=O)N2CCOCC2)cc1 [SAR-20347], the pIC50 (TYK2) is given as 9.22, the pIC50 (JAK1) is given as 7.64 and the pIC50 (JAK3; cell-free assay for AT9283) is given as 7.39.
In the case of CC1(C)CN(C(=O)c2ccc(-c3cccc4nc(NC(=O)C5CC5)nn34)cc2)C1 [Solcitinib], the “selectivity for JAK1 over JAK2” value (JAK2) is given as 11 fold, the “selectivity for JAK1 over TYK2” value (TYK2) is given as 23 fold and the pIC50 (JAK1) is given as 8.05 to 8.10. The “selectivity for JAK1 over JAK3” value (JAK3) was 55 fold.
For COc1cc2ncnc(Nc3cc(Br)c(O)c(Br)c3)c2cc1OC [WHI-P97], the pIC50 (EGFR kinase) is given as 5.60.
In the case of COc1cc2ncnc(Nc3ccc(O)c(Br)c3)c2cc1OC [WHI-P154], the “activity against JAK2” value (JAK2) is given as “no activity” and the “activity against JAK1” value (JAK1) is given as “no activity”.
In the case of CC(C)N(CCC(=O)c1ccc2ccccc2c1)Cc1ccccc1 [ZM 39923 HCl], the “activity against JAK2” value (JAK2) is listed as “almost no activity”.
In the case of Oclacitinib maleate, the “inhibition of a panel of 38 non-JAK kinases” value [4] is listed as “does not inhibit”.
